pIC50: −log10 of the molar value. Where “and” joins values, the source holds several entries; their conditions need not be identical. Equal values may be shown once. Read-outs that look alike come from different tables or passages of the source.
What was measured:
[1] = target: T1, p110α Type Ia human PI3K (Homo sapiens, UniProt P42336); assay: In vitro PI3K enzyme assay, Test (b)(i) (AlphaScreen); type: biochemical; details: individual values, measured twice; read-out: IC50 versus p110α Type Ia human PI3K, Test (b)(i)
T1 construct: full length DNA of each of the p110α, p110β and p110δ Type Ia human PI3K p110 isoforms; 6-His; made in house
From the text: (b)(i) In Vitro PI3K Enzyme Assay

[2] = test system: Serine 473 in Akt; assay: In vitro phospho-Ser473 Akt assay, Test (c); type: cell-based; details: MDA-MB-468 human breast adenocarcinoma cells, 2 hours; read-out: IC50 versus Serine 473 in Akt, Test (c)
Method: (c) In Vitro Phospho-SeR473 Akt Assay
This assay determines the ability of test compounds to inhibit phosphorylation of Serine 473 in Akt as assessed using Acumen Explorer technology (Acumen Bioscience Limited), a plate reader that can be used to rapidly quantitate features of images generated by laser-scanning.
A MDA-MB-468 human breast adenocarcinoma cell line (LGC Promochem, Teddington, Middlesex, UK, Catalogue No. HTB-132) was routinely maintained at 37° C. with 5% CO2 up to a confluency of 70-90% in DMEM containing 10% heat-inactivated FCS and 1% L-glutamine.
For the assay, the cells were detached from the culture flask using ‘Accutase’ (Innovative Cell Technologies Inc., San Diego, Calif., USA; Catalogue No. AT104) using standard tissue culture methods and resuspended in media to give 1.7×10^5 cells per mL. […]
All subsequent aspiration and wash steps were carried out using a Tecan 96 well plate washer (aspiration speed 10 mm/sec). […] An aliquot of PBS (50 μl) was added to each well and the plates were sealed with black plate sealers and the fluorescence signal was detected and analysed.
Fluorescence dose response data obtained with each compound were analysed and the degree of inhibition of Serine 473 in Akt was expressed as an IC50 value.

[3] = target: T2, mTOR kinase (Homo sapiens, UniProt P42345); assay: In vitro mTOR kinase assay, Test (a)(i) (AlphaScreen); type: biochemical
T2 construct: FLAG; made in house
Method: (a)(i) In Vitro mTOR Kinase Assay
A C-terminal truncation of mTOR encompassing amino acid residues 1362 to 2549 of mTOR (EMBL Accession No. L34075) was stably expressed as a FLAG-tagged fusion in HEK293 cells as described by Vilella-Bach et al., […], 1999, 274, 4266-4272. The HEK293 FLAG-tagged mTOR (1362-2549) stable cell line was routinely maintained at 37° C. with 5% CO2 up to a confluency of 70-90% in Dulbecco's modified Eagle's growth medium (DMEM; Invitrogen Limited, Paisley, UK Catalogue No. 41966-029) containing 10% heat-inactivated foetal calf serum (FCS; Sigma, Poole, Dorset, UK, Catalogue No. F0392), 1% L-glutamine (Gibco, Catalogue No. 25030-024) and 2 mg/ml Geneticin (G418 sulfate; Invitrogen Limited, UK Catalogue No. 10131-027). Following expression in the mammalian HEK293 cell line, expressed protein was purified using the FLAG epitope tag using standard purification techniques.
A 30 μl mixture of recombinant purified mTOR enzyme, 1 μM biotinylated peptide substrate (Biotin-Ahx-[…]NH2; Bachem UK Ltd), ATP (20 μM) and a buffer solution [comprising Tris-HCl pH7.4 buffer (50 mM), EGTA (0.1 mM), bovine serum albumin (0.5 mg/mL), DTT (1.25 mM) and manganese chloride (10 mM)] was agitated at room temperature for 90 minutes.
These assay solutions were incubated for 2 hours at room temperature.
Phosphorylated biotinylated peptide is formed in situ as a result of mTOR mediated phosphorylation. The phosphorylated biotinylated peptide that is associated with AlphaScreen Streptavidin donor beads forms a complex with the p70 S6 Kinase (T389) 1A5 Monoclonal Antibody that is associated with Alphascreen Protein A acceptor beads. […] Accordingly, the presence of mTOR kinase activity results in an assay signal. In the presence of an mTOR kinase inhibitor, signal strength is reduced.

T2 sequence (P42345 1362-2549): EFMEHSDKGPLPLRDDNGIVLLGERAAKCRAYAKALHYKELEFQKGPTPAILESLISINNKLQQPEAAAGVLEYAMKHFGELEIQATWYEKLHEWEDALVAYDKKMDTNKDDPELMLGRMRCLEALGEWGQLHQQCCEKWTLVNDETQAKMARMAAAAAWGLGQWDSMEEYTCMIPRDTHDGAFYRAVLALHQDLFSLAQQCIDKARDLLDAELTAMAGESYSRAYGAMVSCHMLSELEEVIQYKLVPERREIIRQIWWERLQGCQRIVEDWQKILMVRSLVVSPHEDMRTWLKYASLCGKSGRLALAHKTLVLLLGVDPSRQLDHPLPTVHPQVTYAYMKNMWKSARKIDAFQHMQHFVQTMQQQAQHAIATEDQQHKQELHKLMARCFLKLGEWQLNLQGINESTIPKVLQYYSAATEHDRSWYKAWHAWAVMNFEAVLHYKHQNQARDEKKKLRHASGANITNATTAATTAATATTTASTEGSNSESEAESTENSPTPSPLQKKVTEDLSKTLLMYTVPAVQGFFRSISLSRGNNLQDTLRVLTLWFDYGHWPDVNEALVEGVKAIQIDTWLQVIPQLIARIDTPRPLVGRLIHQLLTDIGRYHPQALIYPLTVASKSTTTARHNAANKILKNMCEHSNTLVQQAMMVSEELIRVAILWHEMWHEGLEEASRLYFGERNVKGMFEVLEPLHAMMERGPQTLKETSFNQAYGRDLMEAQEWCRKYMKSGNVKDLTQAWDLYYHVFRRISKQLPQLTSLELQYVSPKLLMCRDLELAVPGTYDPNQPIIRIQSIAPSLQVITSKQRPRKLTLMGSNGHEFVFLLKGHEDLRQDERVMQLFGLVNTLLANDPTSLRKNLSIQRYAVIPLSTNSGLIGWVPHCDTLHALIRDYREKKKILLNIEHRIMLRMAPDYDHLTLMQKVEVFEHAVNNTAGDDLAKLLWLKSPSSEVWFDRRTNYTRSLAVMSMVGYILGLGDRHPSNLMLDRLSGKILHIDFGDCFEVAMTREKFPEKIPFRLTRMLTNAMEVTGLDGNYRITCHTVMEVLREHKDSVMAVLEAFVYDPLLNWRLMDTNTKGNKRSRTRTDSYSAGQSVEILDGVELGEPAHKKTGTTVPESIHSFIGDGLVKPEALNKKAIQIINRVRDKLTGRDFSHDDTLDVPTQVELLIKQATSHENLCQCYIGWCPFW
T1 sequence (P42336 whole entry, canonical isoform): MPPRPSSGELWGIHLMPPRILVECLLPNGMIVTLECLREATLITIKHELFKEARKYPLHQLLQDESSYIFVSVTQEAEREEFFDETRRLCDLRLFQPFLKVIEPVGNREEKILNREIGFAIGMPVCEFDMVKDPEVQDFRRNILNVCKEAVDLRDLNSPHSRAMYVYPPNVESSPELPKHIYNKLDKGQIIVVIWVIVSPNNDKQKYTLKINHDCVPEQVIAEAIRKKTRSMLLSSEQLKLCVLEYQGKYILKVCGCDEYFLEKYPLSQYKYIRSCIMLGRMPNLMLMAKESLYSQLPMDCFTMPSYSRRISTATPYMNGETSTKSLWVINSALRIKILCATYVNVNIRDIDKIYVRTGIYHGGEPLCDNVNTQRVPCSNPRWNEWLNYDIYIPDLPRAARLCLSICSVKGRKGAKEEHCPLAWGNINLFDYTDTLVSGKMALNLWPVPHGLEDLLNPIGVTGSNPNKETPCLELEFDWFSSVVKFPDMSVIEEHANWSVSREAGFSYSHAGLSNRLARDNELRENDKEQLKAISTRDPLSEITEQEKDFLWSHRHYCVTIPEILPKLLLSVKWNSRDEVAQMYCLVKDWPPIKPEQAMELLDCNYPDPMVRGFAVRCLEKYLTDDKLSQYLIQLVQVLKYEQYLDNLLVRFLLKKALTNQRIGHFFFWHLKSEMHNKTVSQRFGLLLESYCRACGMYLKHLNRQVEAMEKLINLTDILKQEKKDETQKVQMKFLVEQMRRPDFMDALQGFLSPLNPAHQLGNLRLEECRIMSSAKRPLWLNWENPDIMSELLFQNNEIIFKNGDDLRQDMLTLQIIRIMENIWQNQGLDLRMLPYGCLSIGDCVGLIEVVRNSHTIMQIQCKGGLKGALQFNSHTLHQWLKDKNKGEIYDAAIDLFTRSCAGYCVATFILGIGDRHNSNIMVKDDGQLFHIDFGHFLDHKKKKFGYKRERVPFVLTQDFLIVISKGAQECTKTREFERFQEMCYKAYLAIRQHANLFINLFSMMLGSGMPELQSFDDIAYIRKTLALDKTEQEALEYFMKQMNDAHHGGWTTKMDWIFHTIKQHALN
T1 sequence (P27986 whole entry partner, canonical isoform): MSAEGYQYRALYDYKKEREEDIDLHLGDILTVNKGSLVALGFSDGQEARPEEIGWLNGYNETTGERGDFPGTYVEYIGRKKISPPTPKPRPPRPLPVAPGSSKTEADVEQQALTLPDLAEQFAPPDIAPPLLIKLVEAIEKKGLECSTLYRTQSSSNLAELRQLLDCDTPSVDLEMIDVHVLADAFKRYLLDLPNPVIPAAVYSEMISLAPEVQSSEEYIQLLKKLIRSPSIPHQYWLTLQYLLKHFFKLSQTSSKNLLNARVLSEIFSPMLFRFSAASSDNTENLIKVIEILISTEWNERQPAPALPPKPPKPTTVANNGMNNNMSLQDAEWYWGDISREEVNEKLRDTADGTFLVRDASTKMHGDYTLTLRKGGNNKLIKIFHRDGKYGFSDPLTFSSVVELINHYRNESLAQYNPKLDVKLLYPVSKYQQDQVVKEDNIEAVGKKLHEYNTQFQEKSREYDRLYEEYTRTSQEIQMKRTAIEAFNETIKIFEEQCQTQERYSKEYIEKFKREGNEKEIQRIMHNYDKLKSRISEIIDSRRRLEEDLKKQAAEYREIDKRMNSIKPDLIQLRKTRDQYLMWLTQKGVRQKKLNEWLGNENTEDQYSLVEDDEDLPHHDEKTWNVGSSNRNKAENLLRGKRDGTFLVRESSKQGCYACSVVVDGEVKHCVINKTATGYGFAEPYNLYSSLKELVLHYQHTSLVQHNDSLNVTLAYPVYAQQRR

pIC50 [1]: 4.03 and 4.29
pIC50 [2]: 5.11
pIC50 ([3]; individual values, measured twice, read-out: IC50 versus mTOR kinase, Test (a)(i)): 5.61 and 5.79
pIC50 ([3]; recombinant FLAG-tagged mTOR (1362-2549), ATP 20 μM, read-out: Test (a)(i) IC50): 5.70
SMILES: CN(C)CC(=O)Nc1ccc(-c2nc(CS(C)(=O)=O)cc(N3CCOCC3)n2)cc1 [Example 5p, 2-dimethylamino-N-[4-[4-(methylsulfonylmethyl)-6-morpholin-4-yl-pyrimidin-2-yl]phenyl]acetamide]

Reference: US20100261723A1, “TRISUBSTITUTED PYRIMIDINE DERIVATIVES FOR THE TREATMENT OF PROLIFERATIVE DISEASES” (ASTRAZENECA AB, priority 2007, published 2010)
